# Assays:
# Fire ants = assay: Spray test on fire ants; type: in vivo, Red Imported species
# Method: The time various compositions take to both knock down (KD) and kill (TM) various pests was determined. As a control, results were compared using sodium lauryl sulfate by itself, and with the various fatty acids.
# The tests were conducted for a maximum observation time of 30 minutes, after which time, the test, and all observations, was stopped.
# Protocol: Fire ants (Red Imported species) were directly sprayed while traveling on the ground. The average amount of material per area was calculated. The amount of material to kill the Fire Ant was determined.
# Tick = Tick repellency on skin; type: in vivo; details: on its own
structure (smiles),measurement,setting,value
CCCCCCCCCCCCOS(=O)(=O)[O-].[Na+] [sodium lauryl sulfate],Amount of aqueous 10% SLS mixture to kill the fire ant,Fire ants,around 20 ml
same,Repellency to ticks,Tick,not observed to be particularly repellent

# — US8142801B2, “Pesticidal compositions and methods of use thereof” (EcoBlend, LLC, priority 2009, dated 2012)
